Laboratory results published in article PMC4822798 (Clinical Pharmacology : Advances and Applications, 2016).
Read-outs that look alike come from different tables or passages of the source.

Columns and labels:
[1] = cited from earlier work
MRSA strains = test: Teicoplanin susceptibility testing; format: cell-based, methicillin-resistant Staphylococcus aureus; settings: Mueller-Hinton agar, E-test, 16–20 hours at 37°C
MRSA isolates = settings: all isolates, cited from earlier work
[2] = mean population PK parameter, Japanese patients; cited from earlier work
MRSA infections [3] = settings: cited from earlier work; for AUC24 value on the third day: ref 12 (Hagihara et al)
MRSA infections [4] = test: PK/PD analysis: AUC24/MIC ratio versus bacteriological response in patients; format: in vivo, patients (human); settings: for probability of treatment success: logistic regression, 46 patients

CN[C@H](CC(C)C)C(=O)N[C@H]1C(=O)N[C@@H](CC(N)=O)C(=O)N[C@H]2C(=O)N[C@H]3C(=O)N[C@H](C(=O)N[C@H](C(=O)O)c4cc(O)cc(O)c4-c4cc3ccc4O)[C@H](O)c3ccc(c(Cl)c3)Oc3cc2cc(c3O[C@@H]2O[C@H](CO)[C@@H](O)[C@H](O)[C@H]2O[C@H]2C[C@](C)(N)[C@H](O)[C@H](C)O2)Oc2ccc(cc2Cl)[C@H]1O [vancomycin]
trough concentrations needed to achieve an AUC value of ≥400 [1]: 10 to 20 µg/mL
AUC/MIC ratio associated with clinical and bacteriological responses ([1]; guidelines for therapeutic drug monitoring): ≥ 400

teicoplanin
MIC (MRSA strains; 2.2% of the 46 MRSA strains): 0.38 µg/mL
MIC (MRSA strains; 6.5% of the 46 MRSA strains): 0.5 µg/mL
MIC (MRSA strains; 13.0% of the 46 MRSA strains): 1.5 µg/mL
MIC (MRSA strains; 34.8% of the 46 MRSA strains): 1.0 µg/mL
MIC (MRSA strains; 43.5% of the 46 MRSA strains): 0.75 µg/mL
MIC (MRSA isolates; ref 12): ≤ 1.0 µg/mL
MIC (MRSA isolates; ref 13): < 2.0 µg/mL
distribution volume of the central compartment [2]: 10.4 L
transfer rate constant from the central compartment to the peripheral compartment [2]: 0.38 h⁻¹
transfer rate constant from the peripheral compartment to the central compartment [2]: 0.0485 h⁻¹
trough concentrations effective for treating most infections (MRSA infections [3]): > 13 µg/mL
log[Cmax, unbound/MIC] threshold for achieving treatment success (MRSA infections [3]; day 3 of teicoplanin therapy, ref 14 (Ogawa et al)): 0.30
AUC24 value on the third day (MRSA infections [3]; treatment failure group): 652.9 ± 83.4 µg·h/mL
AUC24 value on the third day (MRSA infections [3]; treatment success group): 897.6 ± 71.7 µg·h/mL
probability of treatment success (MRSA infections [4]; AUC24/MIC ratio of 500 µg·h/mL on day 3): 0.50
probability of treatment success (MRSA infections [4]; AUC24/MIC ratio of 700 µg·h/mL on day 3): 0.72
probability of treatment success (MRSA infections [4]; AUC24/MIC ratio of 900 µg·h/mL on day 3): 0.87
bacteriological response, AUC24/MIC ratios of ≥900 (n=15) versus <900 (n=31) (MRSA infections [4]; Kaplan–Meier curve analysis, P<0.05): significantly stronger bacteriological responses
AUC24/MIC ratio required to ensure bacteriological responses (MRSA infections [4]; patients with MRSA infections): ≥ 900 µg·h/mL
